According to patent USRE36854E, “Vitamin D compounds and method of preparing these compounds” (Duphar International Research B.V., priority 1997, dated 2000):

Experiments:
[1] = tested on: HL-60 cells / intestinal Ca^2+ transport; test: Cell differentiation versus calciotropic effect (ratio of HL-60 NBT reduction to intestinal Ca2+ transport); type: cell-based, human; conditions: for ratio relative to DHCC: fraction normalised to 1α,25-DHCC = 1.00; for fraction (concentration for 50% NBT reduction in HL-60 cells / concentration for half-maximal increase in intestinal Ca^2+ transport): smaller ratio = higher relative cell differentiating capacity; for selectivity of action / better ratio than 1α,25-DHCC (fold): differentiation versus intestinal Ca transport
Text: Therefore, it should be very advantageous to develop compounds with a high selectivity of biological action. In other words, compounds in which the ratio between the induction of cell differentiation and calciotropic effects, e.g. the stimulation of intestinal Ca transport, is changed compared to 1α,25-DHCC. The ratio between differentiation-inducing capacity and the stimulation of intestinal Ca transport is defined as the fraction between the concentration at which 50% NBT reduction in HL-60 cells is obtained, and the concentration at which a half-maximal increase in intestinal Ca^2+ transport is reached. The smaller the ratio, the higher the relative cell differentiating capacity.

[2] = tested on: human leukemic cell line HL-60; test: HL-60 cell differentiation assay (NBT reduction, non-specific esterase, May-Grunwald Giemsa); type: cell-based; conditions: for induction of differentiation and maturation of the HL-60 cells: 10^-12 to 10^-6 M; for induction of differentiation and maturation of the HL-60 cells / differentiation in the cytological test (non-specific esterase and May-Grunwald Giemsa) / NBT-reduction inducing capacity relative to 1α,25-DHCC (fold stronger): HL-60; for concentration range of optimum effect: HL-60, cytological test; for NBT-reduction inducing capacity relative to 1α,25-DHCC (fold stronger): FIGS. 3 and 4
Procedure: Vitamin D compounds according to the invention are dissolved in ethanol in concentrations ranging from 10^-12 to 10^-6 M and tested for their capacity to induce cell differentiation in a HL-60 assay. In this assay, morphologic and biochemical examination of the human leukemic cell line HL-60 is done, in order to establish whether cell differentiation has taken place.
Differentiation is expressed as the maturation parameters nitroblue tetrazolium (NBT) reduction, non-specific esterase, and as the percentage of mature cells beyond the myelocyte stage which is visible after staining with May-Grunwald Giemsa. After culturing with the known 1α,25-DHCC or with vitamin D compounds of the invention, the percentage of cells containing black formazan deposits is determined. An increase in the percentage of NBT reducing cells indicates an increase in cell differentiation.
Proliferation and vitality of the cell cultures are established by counting the number of cells and by the trypan blue exclusion method.

rabbit kidney cells = test: Rabbit kidney cell assay (45Ca2+ reabsorption); type: cell-based; conditions: rabbit renal cell cultures; for increase in Ca^2+ -reabsorption: 10^-9 M
Procedure: Together with the intestine and the bone, the kidney is one of the major target organs of 1α,25-DHCC. The kidney plays an extremely important role in calcium homeostasis, since about 98% of the calcium has to be reabsorbed in the kidneys in order to prevent calcium loss and hypocalcemia. The vitamin D compounds according to the invention are dissolved in ethanol and tested in the rabbit kidney cell assay. In this assay, reabsorption of ^45 Ca^2+ is measured in monolayers of rabbit kidney cells. The cells are isolated by immunodissection of connecting tubules with the aid of monoclonal antibodies. […] The values in the Table represent the increase in Ca^2+ -reabsorption in mmol/cm^2 /h.

[3] = tested on: intestinal cancer cell line Caco-2; test: Caco-2 assay for intestinal calcium transport (45Ca2+ influx); type: cell-based; conditions: for relative increase in Ca^2+ influx (1α,25-DHCC = 100): 10^-9 M
Procedure: The most well-known effect of 1α,25-DHCC is its action on the calcium metabolism, the calciotropic effect. Calciotropic target organs are the intestine, the bone and the kidney. The vitamin D compounds according to the invention are dissolved in ethanol and tested in the so-called Caco-2 assay for intestinal calcium (Ca) transport. In this assay, the vitamin D-induced influx of ^45 Ca^2+ is measured in monolayers of the intestinal cancer cell line Caco-2. This influx is corrected for the concentration-driven Ca^2+ influx and is a measure for the Ca transport across the intestinal wall. The Caco-2 cells are known to have vitamin D receptors. Increased intestinal calcium transport can be the first step leading to a rise in blood calcium levels (and eventually to hypercalcemia). […] The values in the table represent the relative increase in Ca^2 + influx (the value for 1α,25-DHCC is arbitrarily fixed at 100).

[4] = biological target: T1, calf thymus intracellular vitamin D receptor (VDR) (Bos taurus, UniProt Q28037); test: Affinity to intracellular vitamin D receptor (displacement of 3H-1α,25-DHCC); type: binding; conditions: 10^-13 to 10^-7 M
T1 construct: 3H-1α,25-DHCC displacement
T1 sequence (Q28037 1-426): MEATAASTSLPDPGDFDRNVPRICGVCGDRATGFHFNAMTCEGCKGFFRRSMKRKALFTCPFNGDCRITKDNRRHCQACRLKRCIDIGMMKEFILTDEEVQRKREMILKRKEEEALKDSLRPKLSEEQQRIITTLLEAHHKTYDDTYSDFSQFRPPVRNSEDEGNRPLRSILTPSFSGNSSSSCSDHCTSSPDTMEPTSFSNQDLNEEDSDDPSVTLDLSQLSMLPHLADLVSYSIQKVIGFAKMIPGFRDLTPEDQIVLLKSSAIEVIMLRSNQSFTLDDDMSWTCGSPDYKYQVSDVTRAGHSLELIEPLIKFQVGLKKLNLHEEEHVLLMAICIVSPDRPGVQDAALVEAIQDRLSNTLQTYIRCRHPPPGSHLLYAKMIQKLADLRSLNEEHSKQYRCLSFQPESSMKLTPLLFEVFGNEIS
Text: In this assay, ^3 H-1α,25-dihydroxycholecalciferol (^3 H-1α,25-DHCC), which is specifically bound to the VDR, is replaced by the tested compounds. Especially the tested compounds 11, 13 and 14 have a very high VDR-affinity. A high VDR-affinity is indicative for biologically active substances.

[5] = biological target: T2, human vitamin D binding protein (DBP) (Homo sapiens, UniProt P02774); test: Affinity to vitamin D binding protein (competition with 3H-1α,25-DHCC); conditions: DBP purified from total human serum; 10^-11 to 2.5×10^-6 M; FIGS. 1 and 2
T2 sequence (P02774 17-474): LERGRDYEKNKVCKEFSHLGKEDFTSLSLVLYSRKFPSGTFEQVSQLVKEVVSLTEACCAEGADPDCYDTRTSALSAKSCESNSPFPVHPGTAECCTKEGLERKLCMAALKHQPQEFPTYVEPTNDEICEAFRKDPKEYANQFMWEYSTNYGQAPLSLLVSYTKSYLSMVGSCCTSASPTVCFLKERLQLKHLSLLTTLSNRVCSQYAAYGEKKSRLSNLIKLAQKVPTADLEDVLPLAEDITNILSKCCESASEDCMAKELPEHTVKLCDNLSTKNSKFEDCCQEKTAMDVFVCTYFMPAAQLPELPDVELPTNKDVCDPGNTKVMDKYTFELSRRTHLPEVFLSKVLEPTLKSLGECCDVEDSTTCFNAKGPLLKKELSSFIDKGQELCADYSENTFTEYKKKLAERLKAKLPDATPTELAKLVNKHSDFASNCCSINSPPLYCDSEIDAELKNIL
Procedure: Vitamin D binding protein (DBP) is the specific carrier for vitamin D and its metabolites in blood. The biological activity of vitamin D compounds depends on their binding to DBP, because strong binding to DBP will reduce the intracellular access to the VDR. Binding to the DBP may also influence the half-life of the vitamin D derivatives in circulation. Weak binders are rapidly matabolized, which is a favourable aspect in topical application. In the assay DBP is incubated with ^3 H-1α,25-DHCC and 1α,25-DHCC or with several vitamin D compounds according to the invention. To this purpose, the vitamin compounds are dissolved in ethanol in concentrations ranging from 10^-11 to 2.5×10^-6 M. The percentage bound/unbound ^3 H-1α,25-DHCC is then calculated. DBP is purified from total human serum. The results are shown in the appended FIGS. 1 and 2. FIGS. 1 and 2 show the binding of vitamin D compounds to human vitamin D binding protein. [^3 H]1α,25(OH)2 D3 =^3 H-1α,25-DHCC; in both Figures .circle-solid.=1α,25-DHCC (known compound); in FIG. 1 .tangle-solidup.=compound 13 and .gradient.=compound 14; in FIG. 2 Δ=compound 11.

Row | Compound | ratio relative to DHCC [1] | fraction (concentration for 50% NBT reduction in HL-60 cells / concentration for half-maximal increase in intestinal Ca^2+ transport) [1] | induction of differentiation and maturation of the HL-60 cells [2] | increase in Ca^2+ -reabsorption (rabbit kidney cells) [mmol/cm^2 /h] | relative increase in Ca^2+ influx (1α,25-DHCC = 100) ([3]; experiment 1) | relative increase in Ca^2+ influx (1α,25-DHCC = 100) ([3]; experiment 2) | selectivity of action / better ratio than 1α,25-DHCC (fold) [1] [×] | differentiation in the cytological test (non-specific esterase and May-Grunwald Giemsa) [2] | concentration range of optimum effect [2] | NBT-reduction inducing capacity relative to 1α,25-DHCC (fold stronger) [2] | stimulation of renal Ca-reabsorption compared with compound 12 and 1α,25-DHCC (rabbit kidney cells) | VDR-affinity [4] | stimulation of intestinal calcium absorption compared with 1α,25-DHCC [3] | binding to the DBP, compared to the known 1α,25-DHCC [5]
1 | C=C1/C(=C\C=C2/CCC[C@]3(C)[C@@H]([C@H](C)CCCC(C)(C)O)CC[C@@H]23)C[C@@H](O)C[C@@H]1O [1α,25-DHCC, 1α,25-dihydroxycholecalciferol, reference compound] | 1.00 | 107 | induce differentiation and maturation | 13.4 | 100 | 100 | – | – | – | – | – | – | – | –
2 | C=C1/C(=C\C=C2/CCC[C@@]3(C)C2CCC3[C@H](C)CCCC(O)(C2CC2)C2CC2)C[C@@H](O)C[C@@H]1O (stereo partly drawn) [Compound 11] | 0.13 | 14.4 | induce differentiation and maturation | 2.4 | 79 | – | 8 | good differentiators | 10^-8 to 10^-7 M | about 5 × | weaker stimulators | very high | weaker stimulators | bind rather weakly
3 | C=C1/C(=C\C=C2/CCC[C@@]3(C)C2CCC3[C@H](C)CCCC(O)(C(C)(C)C)C(C)(C)C)C[C@@H](O)C[C@@H]1O (stereo partly drawn) [Compound 12] | 0.28 | 29.7 | induce differentiation and maturation | 12.8 | 99 | – | 4 | – | – | about 5 × | – | – | – | –
4 | C=C1/C(=C\C=C2/CCC[C@@]3(C)C2CCC3[C@H](C)CCCC(O)(C(C)C)C(C)C)C[C@@H](O)C[C@@H]1O (stereo partly drawn) [Compound 13] | 0.02 | 2.5 | induce differentiation and maturation | -3.7 | – | 65 | 50 | good differentiators | 10^-8 to 10^-7 M | about 10 × | weaker stimulators | very high | weaker stimulators | very weak binder
5 | C=C1/C(=C\C=C2/CCC[C@@]3(CC)C2CCC3[C@H](C)CCCC(O)(C(C)C)C(C)C)C[C@@H](O)C[C@@H]1O (stereo partly drawn) [Compound 14] | 0.02 | 2.6 | induce differentiation and maturation | – | – | 78 | 50 | – | – | about 10 × | – | very high | weaker stimulators | bind rather weakly
